Article PMC8640510 (Cell Death and Differentiation, 2021)
“Also recorded” adds a separate entry of the source.

Biological target: SARS-CoV-2 NSP14/10 complex (ExoN activity) (Severe acute respiratory syndrome coronavirus 2, UniProt P0DTD1)
Assay: biochemical
Assay type: biochemical

SMILES | NSP14/10-inhibitory activity (in words) | IC50
Cc1ccc2ccc(C(=O)O)c(O)c2n1 [#38] | no observed inhibition; also recorded: does not inhibit NSP14 | –
CC(C)=CCc1c(O)ccc(C(=O)/C=C/c2ccc(O)cc2)c1O [#96, Isobavachalcone] | – | 17.4 ± 1.39 µM
CC(C)=CCOc1ccc(/C=C/C(=O)c2ccc(OCC=C(C)C)cc2OCC(=O)O)cc1 [#102, Sofalcone, reference compound] | – | 22 ± 6.02 µM
C[C@@H]1CCO[C@H]2Cn3cc(C(=O)NCc4ccc(F)cc4F)c(=O)c(O)c3C(=O)N12 [Dolutegravir, reference compound] | detectable NSP14/10-inhibitory activities | –
O=C1Cc2ccccc2C(=O)N1O [N-Hydroxy-isoquinoline-1,3-dione, reference compound] | detectable NSP14/10-inhibitory activities | –
